System: epidermal cell renewal
Test: Epidermal cell renewal in vivo by the dihydroxyacetone test (DHA test)
Set-up: species or system human
Conditions: for Development of luminescence (D15-D9) / Luminescence (AU) at D 15: 12 volunteers; for Luminescence (AU) at D 15: D15, 6 days after removal of the plasters, 3 mg/cm^2 daily; for Development of luminescence (D15-D9) % referring to control area: Wilcoxon T Test not significant
Method: Comparative in vivo tests were conducted to determine the accelerated epidermal cell renewal activity using 5 emulsions containing 0.2% by weight or 0.5% by weight vitamin A palmitate, 3% by weight or 5% by weight VITOPTINE® (extract of Vigna aconitifolia, Lab. Sero., Pulnoy) versus placebo.
Phase A and phase B were heated to 75° C. The aqueous phase was added to the fatty phase with continuous stirring and cooled to 60° C. by continued stirring. The combined phases were then homogenized for 2 mins. with an Ultraturrax. Finally, the active component is added with stirring and the whole is cooled to room temperature.
The study was carried out as a double blind study involving 12 female volunteers aged between 18 and 55 years.
The measurement parameter was the intensity of tanning of the skin after pigmenting with dihydroxyacetone. The decreasing tanning intensity corresponds to an increase in the renewal of the stratum corneum and the rate of the epidermal cell renewal cycle.
Eight areas (two groups of four) on the inside of the lower forearm were selected: • control area untreated and unpigmented by DHA, • area treated with placebo cream, • area treated with cream containing vitamin A palmitate • area treated with cream containing VITOPTINE®.
A standardized and randomized pretreatment with 3 mg/cm^2 of a preparation was carried out daily for 7 days. After the pretreatment, on day 8, DHA in the form of a face and body tanning lotion containing 5% by weight DHA was applied to the control and treated areas by an occlusive standardized process. On day 9, the occlusive plasters were removed. This was followed for another 6 days (days 10 to 15) by the same treatment as on days 1 to 7. The color intensity of the skin was determined immediately after removal of the plasters and 6 days later by colorimetric measurements (Minolta chromameter) via luminescence.
The first calculation (D15-D9) allowed evaluation of the development between day 9 (removal of the occlusive plasters) and day 15 (6 days after removal of the occlusive plasters). This development is representative of the epidermal cell renewal cycle. The greater the value, the higher the epidermal cell renewal.

CCCCCCCCCCCCCCCC(=O)OC/C=C(C)/C=C/C=C(C)/C=C/C1=C(C)CCCC1(C)C [vitamin A palmitate]
Development of luminescence (D15-D9) (cream containing 0.2%): 3.53
Luminescence (AU) at D 15 (cream containing 0.2%): 62.18 AU
Development of luminescence (D15-D9) % referring to control area (cream containing 0.2%): 32 (ns) %
Development of luminescence (D15-D9) (cream containing 0.5%): 3.79
Luminescence (AU) at D 15 (cream containing 0.5%): 62.44 AU
Development of luminescence (D15-D9) % referring to control area (cream containing 0.5%): 41 (ns) %
